These results are taken from patent US12091405B2, “Substituted pyrazole compounds as indoleamine 2,3-dioxygenase inhibitors” (Merck Sharp & Dohme LLC, priority 2018, dated 2024).

For assay [1], the target named is T1, IDO1 (Homo sapiens, UniProt P14902). Briefly: IDO1 Human Whole Blood Assay. It is filed as cell-based. More on the design: Human whole blood was drawn in sodium heparin coated tubes from healthy internal donors; from tissue; host or cells: human whole blood from healthy donors, stimulated with LPS and IFNγ. The conditions noted are these: LPS and IFNγ 100 ng/mL, overnight (18 h), kynurenine by LC/MS/MS. The procedure:
IDO1 Human Whole Blood Assay
Compounds to be tested were serially diluted in ten 3-fold steps in DMSO starting from 10 mM. 3 μL of compound dilutions or DMSO alone were then dispensed from the dilution plate into a polypropylene 96-well assay plate containing 97 μL of RPMI medium using an Echo 555 acoustic liquid handler (Labcyte). LPS and IFNγ was prepared in RPMI medium to a 10× of final conc. (1000 ng/mL), final concentration is 100 ng/mL.
Human whole blood was drawn in sodium heparin coated tubes from healthy internal donors. 240 μL of blood was transferred to each of the wells of a v-bottom 96 well plate. 30 μL of compound was transferred from intermediate dilution plate, and incubated for 15 min. 30 μL from stimulants was then transferred to blood and mixed thoroughly. Plate was covered with breathable membrane and incubated at 37° C. for overnight (18 h).
On day 2, isotope labeled standard solutions of kynurenine and tryptophan was made in water at 10× concentration and 30 μL was added to the blood at 3 μM final concentration. The assay plates were centrifuged at 300×G for 10 min with no brake to separate plasma from red blood cells. 60 μL of plasma samples was removed without disturbing red blood cells. Plasma was diluted with RPMI in 1:1 ratio and proteins were precipitated out with two volumes of Acetonitrile. The plates were centrifuged at 4000×G for 60 min. 20 μL of supernatant was carefully transferred to a 384 well plate containing 40 μL of 0.1% formic acid in water and analyzed by LC/MS/MS.
LC/MS/MS analyses were performed using Thermo Fisher's LX4-TSQ Quantum Ultra system. This system consists of four Agilent binary high-performance liquid chromatography (HPLC) pumps and a TSQ Quantum Ultra triple quadrupole MS/MS instrument. For each sample, 5 μL were injected onto an Atlantis T3 column (2.1 mm×150 mm, 3 μm particle size) from Waters. The mobile phase gradient pumped at 0.8 mL/min was used to elute the analytes from the column at 25 EC. The elution started at 0% B increasing linearly to 25% B at 6.5 min, holding at 25% for 1 min, re-equilibrating to 10 min. Mobile phase A consisted of 0.1% formic acid in water. Mobile phase B consisted of 0.1% of formic acid in acetonitrile. Data were acquired in positive mode using a HESI interface. The operational parameters for the TSQ Quantum Ultra instrument were a spray voltage of 4000 V, capillary temperature of 380° C., vaporizer temperature 400° C., shealth gas 60 arbitrary units, Aux gas 20 arbitrary units, tube lens 85 and collision gas 1.2 mTorr. SRM chromatograms of kynurenine (Qi: 209.2>Q3:94.0) and internal standard (Qi: 215.3>Q3:98.2) were collected for 90 sec. The peak area was integrated by Xcalibur Quan software. The ratios between the kynurenine generated in the reaction and 2D6-Kynurenine spiked-in internal standard were used to generate percentage inhibition and IC50 values. Compounds were titrated and IC50's were calculated by 4 parameter sigmoidal curve fitting formula.
The biological activity data of selective compounds using the IDO1 human whole blood assay described above are summarized in the table below.

The target of assay [2] is T1, IDO1. Briefly: IDO1 Cellular Assay in HeLa Cells Stimulated with IFNγ. The conditions noted are these: IFNγ 100 ng/mL, 300 uM L-tryptophan, about 48 hours, fluorescence readout, read-out: IDO1 HELA Cell Assay, IC50. It counts as cell-based.

pIC50: −log10 of the molar value.

T1 sequence (P14902 whole entry): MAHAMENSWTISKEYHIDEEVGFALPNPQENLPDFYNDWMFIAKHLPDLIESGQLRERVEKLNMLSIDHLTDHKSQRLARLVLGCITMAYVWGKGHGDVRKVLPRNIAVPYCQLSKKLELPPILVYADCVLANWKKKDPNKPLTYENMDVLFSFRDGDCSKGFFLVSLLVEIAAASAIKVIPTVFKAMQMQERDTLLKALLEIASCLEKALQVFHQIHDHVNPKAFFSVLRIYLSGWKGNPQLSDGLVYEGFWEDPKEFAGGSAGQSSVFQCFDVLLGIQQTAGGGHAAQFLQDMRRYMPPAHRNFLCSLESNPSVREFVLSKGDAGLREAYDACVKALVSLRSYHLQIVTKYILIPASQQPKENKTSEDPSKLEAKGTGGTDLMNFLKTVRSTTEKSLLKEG

As a reminder, the pIC50 is the negative decadic logarithm of the IC50, by convention in mol/L. Regarding `Cc1cccc(C2CCN(C(=O)Cn3nc(C(=O)N4CCC(O)(CF)CC4)c4c3CCC4)CC2)c1C` [Example 31, 1-[4-(2,3-dimethylphenyl)-1-piperidyl]-2-[3-[4-(fluoromethyl)-4-hydroxy-piperidine-1-carbonyl]-5,6-dihydro-4H-cyclopenta[c]pyrazol-1-yl]ethanone], the pIC50 is 7.06 against IDO1 [1] and 8.29 on IDO1 [2]. As to `Cc1c(F)ccc(C2CCN(C(=O)Cn3nc(C(=O)N4C[C@@H](C)O[C@@H](C)C4)c4c3CCC4)CC2)c1C` [Example 172, 2-{3-[(2R,6S)-2,6-dimethylmorpholine-4-carbonyl]-5,6-dihydrocyclopenta[c]pyrazol-1(4H)-yl}-1-[4-(4-fluoro-2,3-dimethylphenyl)piperidin-1-yl]ethan-1-one], the figures for the pIC50 against IDO1 [1] and on IDO1 [2] were 6.36 and 8.77, respectively. Taken in the same sequence, the figures for `Cc1cccc(C2CCN(C(=O)Cn3nc(C(=O)N4CC[C@H](O)[C@H](F)C4)c4c3CCC4)CC2)c1C` [Example 44, 1-(4-(2,3-dimethylphenyl)piperidin-1-yl)-2-(3-((3R,4S)-3-fluoro-4-hydroxypiperidine-1-carbonyl)-5,6-dihydrocyclopenta[c]pyrazol-1(4H)-yl)ethanone] were 6.14 and 8.14.

In the case of `Cc1c(Cl)cccc1C1CCN(C(=O)Cn2nc(C(=O)N3CCN(C(=O)CO)CC3)c3c2C[C@H]2C[C@@H]32)CC1` [Example 17, 1-(4-(3-chloro-2-methylphenyl)piperidin-1-yl)-2-((3bR,4aR)-3-(4-(2-hydroxyacetyl)piperazine-1-carbonyl)-3b,4,4a,5-tetrahydro-1H-cyclopropa[3,4]cyclopenta[1,2-c]pyrazol-1-yl)ethanone], the pIC50 was 7.22 against IDO1 [1] and 9.00 at IDO1 [2].

Consider `Cc1cc(C2CCN(C(=O)Cn3nc(C(=O)N4C[C@@H](C)O[C@@H](C)C4)c4c3CCC4)CC2)ccc1Cl` [Example 81, 1-[4-(4-chloro-3-methylphenyl)piperidin-1-yl]-2-{3-[(2R,6S)-2,6-dimethylmorpholine-4-carbonyl]-5,6-dihydrocyclopenta[c]pyrazol-1(4H)-yl}ethan-1-one], for which the results for the pIC50 on IDO1 [1] and on IDO1 [2] were 5.88 and 8.54, respectively. As to `Cc1cccc(C2CCN(C(=O)Cn3nc(C(=O)N4CCN(C(=O)CO)CC4)c4c3C[C@H]3C[C@@H]43)CC2)c1C` [Example 18, 1-[4-(2,3-dimethylphenyl)piperidin-1-yl]-2-{(3bR,4aR)-3-[4-(hydroxyacetyl)piperazine-1-carbonyl]-3b,4,4a,5-tetrahydro-1H-cyclopropa[3,4]cyclopenta[1,2-c]pyrazol-1-yl}ethan-1-one], the pIC50 against IDO1 [1] was 7.23; on IDO1 [2], 8.64. Taken in the same sequence, the figures for `Cc1cccc(C2CCN(C(=O)Cn3nc(C(=O)N4CCC(OCCO)CC4)c4c3CCC4)CC2)c1C` [Example 33, 1-(4-(2,3-dimethylphenyl)piperidin-1-yl)-2-(3-(4-(2-hydroxyethoxy)piperidine-1-carbonyl)-5,6-dihydrocyclopenta[c]pyrazol-1(4H)-yl) ethanone] were 7.51 and 8.96. For `Cc1cccc(C2CCN(C(=O)Cn3nc(C(=O)N4CC[C@H](O)[C@H](C)C4)c4c3C[C@H]3C[C@@H]43)CC2)c1C` [Example 20, 1-[4-(2,3-dimethylphenyl)piperidin-1-yl]-2-{(3bR,4aR)-3-[(3R,4S)-4-hydroxy-3-methylpiperidine-1-carbonyl]-3b,4,4a,5-tetrahydro-1H-cyclopropa[3,4]cyclopenta[1,2-c]pyrazol-1-yl}ethan-1-one] the same measures were 7.27 and 9.05.

In the case of `Cc1cccc(C2CCN(C(=O)Cn3nc(C(=O)N4CCN(C(=O)CO)CC4)c4c3CCCC4)CC2)c1C` [Example 42, 1-(4-(2,3-dimethylphenyl)piperidin-1-yl)-2-(3-(4-(2-hydroxyacetyl)piperazine-1-carbonyl)-4,5,6,7-tetrahydro-1H-indazol-1-yl)ethanone], the values for the pIC50 on IDO1 [1] and on IDO1 [2] were 6.52 and 8.43, respectively.

With `Cc1cccc(C2CCN(C(=O)Cn3nc(C(=O)N4CC[C@@H](O)[C@@H](F)C4)c4c3CCCC4)CC2)c1C` [Example 35, 1-(4-(2,3-dimethylphenyl)piperidin-1-yl)-2-(3-((3S,4R)-3-fluoro-4-hydroxypiperidine-1-carbonyl)-4,5,6,7-tetrahydro-1H-indazol-1-yl) ethanone], the values for the pIC50 against IDO1 [1] and at IDO1 [2] were 6.66 and 8.89, respectively. In the case of `Cc1cccc(C2CCN(C(=O)Cn3nc(C(=O)N4C[C@@H](C)O[C@@H](C)C4)c4c3CCC4)CC2)c1C` [Example 64, 2-(3-((2S,6R)-2,6-dimethylmorpholine-4-carbonyl)-5,6-dihydrocyclopenta [c]pyrazol-1(4H)-yl)-1-(4-(2,3-dimethylphenyl)piperidin-1-yl) ethanone], the figures for the negative logarithm of the IC50 (pIC50) at IDO1 [1] and on IDO1 [2] were 6.53 and 8.96, respectively. As to `Cc1cccc(C2CCN(C(=O)Cn3nc(C(=O)N4C[C@@H](C)O[C@@H](C)C4)c4c3CCC4)CC2)c1` [Example 65, 2-(3-((2S,6R)-2,6-dimethylmorpholine-4-carbonyl)-5,6-dihydrocyclopenta [c]pyrazol-1(4H)-yl)-1-(4-(m-tolyl)piperidin-1-yl)ethanone], the pIC50 on IDO1 [1] is 6.19; at IDO1 [2] it was 7.80.

Turning to `Cc1c(C2CCN(C(=O)Cn3nc(C(=O)N4CCC(O)CC4)c4c3C[C@H]3C[C@@H]43)CC2)cccc1C(F)(F)F` [Example 2, 2-((3bR,4aR)-3-(4-hydroxypiperidine-1-carbonyl)-3b,4,4a,5-tetrahydro-1H-cyclopropa[3,4]cyclopenta[1,2-c]pyrazol-1-yl)-1-(4-(2-methyl-3-(trifluoromethyl)phenyl)piperidin-1-yl) ethanone], at IDO1 [2], the pIC50 was 8.80.

Consider `C[C@@H]1CN(C(=O)c2nn(CC(=O)N3CCC(c4ccccc4F)CC3)c3c2CCC3)C[C@H](C)O1` [Example 145, 2-{3-[(2R,6S)-2,6-dimethylmorpholine-4-carbonyl]-5,6-dihydrocyclopenta[c]pyrazol-1(4H)-yl}-1-[4-(2-fluorophenyl)piperidin-1-yl]ethan-1-one], for which the pIC50 at IDO1 [2] was 6.98. Still for that read-out and setting: the value for `C[C@@H]1CN(C(=O)c2nn(CC(=O)N3CCC(c4ccc(C(F)F)c(F)c4)CC3)c3c2CCC3)C[C@H](C)O1` [Example 140, 1-{4-[4-(difluoromethyl)-3-fluorophenyl]piperidin-1-yl}-2-{3-[(2R,6S)-2,6-dimethylmorpholine-4-carbonyl]-5,6-dihydrocyclopenta[c]pyrazol-1(4H)-yl}ethan-1-one] was 7.05; that for `Cc1cc(F)ccc1C1CCN(C(=O)Cn2nc(C(=O)N3CC[C@@H](O)[C@@H](F)C3)c3c2CCC3)CC1` [Example 55, 1-(4-(4-fluoro-2-methylphenyl)piperidin-1-yl)-2-(3-((3S,4R)-3-fluoro-4-hydroxypiperidine-1-carbonyl)-5,6-dihydrocyclopenta[c]pyrazol-1(4H)-yl)ethanone] was 6.78; that for `Cc1cccc(C2CCN(C(=O)Cn3nc(C(=O)N4CC[C@@H](O)[C@H](F)C4)c4c3CCC4)CC2)c1C` [Example 45, 1-(4-(2,3-dimethylphenyl)piperidin-1-yl)-2-(3-((3R,4R)-3-fluoro-4-hydroxypiperidine-1-carbonyl)-5,6dihydrocyclopenta[c]pyrazol-1(4H)-yl)ethanone] was 8.09. The same measure, in the same setting: the value for `C[C@@H]1CN(C(=O)c2nn(CC(=O)N3CCC(c4cccc(F)c4Cl)CC3)c3c2CCC3)C[C@H](C)O1` [Example 97, 1-[4-(2-chloro-3-fluorophenyl)piperidin-1-yl]-2-{3-[(2R,6S)-2,6-dimethylmorpholine-4-carbonyl]-5,6-dihydrocyclopenta[c]pyrazol-1(4H)-yl}ethan-1-one] was 7.62.
